Entries after “also recorded” stand apart in the source; their conditions may differ.
What was measured:
HLA-DR10 = test: NMR screening of ligands for binding to HLA-DR10; parameters: species or system human
Text: Determination of ligand binding and orientation can also be determined using a number of different methods. These include, but are not limited to Saturation Transfer Difference nuclear magnetic resonance (Mayer and Meyer (1999) Angew Chem Int Edit, 38:1784-1788) and Transfer NOE (trNOE) nuclear magnetic resonance (NMR) spectroscopy (Henrichsen et al. (1999) Angew Chem Int Edit., 38:98-102; Cosman et al. (2002) Chem Res Toxicol 15: 1218-1228). These methods can be used to screen the ligands in mixtures of several to several hundred per experiment to determine which ligands bind to the target molecule(s) e.g., under biologically relevant conditions and to determine which ligands bind to the same (or different) sites. Diffusion experiments (Lin et al. (1997) J. Organic Chem., 62: 8930-8931) can also be performed with those ligands that have been determined to bind in order to assess the relative binding affinity of each compound.
As a result of the computational docking, 30 compounds from both the Site 1 and Site 2 lists were experimentally screened by NMR.
A number of cell surface protein receptors have been identified that distinguish malignant cancer cells from their normal counterparts. […] This has led to the development of a variety of antibody-based, receptor-specific reagents conjugated to radioisotopes for use in radio-immunotherapy. […]

Raji cells = test: 3-D confocal microscopy, Raji cells; type: cell-based, human; details: biotinylated reagent, 1 hr; 10 μM SHAL or 10 nM chLym-1; listed as parent SHAL
Protocol: SHAL binding and internalization by Raji and Jurkat's cells was assessed using the method described previously by O'Donnell et al. (O'Donnell et al. (1998) Prostate 37:91-97). Experiments were conducted comparing the binding of (DvLPBaPPP)2LLDo (the parent SHAL), its hexa-arginine analog (DvLPBaPPP)2LArg6AcLLDo, and chimeric Lym-1 (chLym-1) to Raji cells. All steps were performed at 20° C., unless indicated.
Four million Raji cells (>92% viability) in log phase growth were pelleted at 300×g, washed, and blocked for 30 min in 1 ml of 1% fraction V BSA in PBS, with constant rotation. Cells were then incubated 1 hr, at 1 million per 250 μl, with either 1% BSA in PBS or a biotinylated primary reagent: 10 nM chLym-1, 10 μM parent SHAL, or 10 μM hexa-arginine SHAL. After four washes (two in 1% BSA in PBS, two in PBS), 50 μl of the cell suspensions was applied to freshly poly-L-Lysine coated slides, and cells were allowed to adhere for 10 min in a humid chamber. Fixation and permeabilization were performed at −20° C. by using a 4 min exposure to methanol. Jurkat's cells were treated in the same manner as a control.
Slides were then washed twice in PBS and blocked in 10% fetaplex serum (Gemini Bioproducts, West Sacramento, Calif.) in PBS for 15 min and washed once in PBS. The detection reagent, Streptavidin AlexaFluor 610 (Invitrogen, Carlsbad, Calif.) was diluted 1/500 in diluent, 100 μl was applied; a parafilm cover slip was layered over the solution to prevent evaporation. The slides were incubated in a humid chamber for 30 min., washed 5 times for 5 min each in PBS, and rinsed briefly in double distilled H2O. After the slides dried, cover slips were mounted with ProlongGold with 4′,6-diamidino-2-phenylindole (DAPI, Invitrogen, Carlsbad, Calif.). The slides were viewed with an Olympus FV1000 laser scanning confocal microscope and data were collected as Z-scans at 160×, with focal sections being taken 1 μm apart through the cell.

[1] = tested on: Raji cells expressing HLA-DR10; test: Whole cell binding assay with 111In-labeled SHAL; type: cell-based, human
Protocol: Raji human Burkitt's lymphoma B-cells (American Type Culture Collection, Manassas, Va.) were maintained in RPMI-1640 media supplemented with 10% fetal bovine serum, 2mM L-glutamine, 1 mM sodium pyruvate, 1% of a solution of nonessential amino acids (GIBCO #11140-050), and 100 units/ml of Penicillin G, 100 μg/ml Streptomycin, and 0.25 μg/ml of Amphotericin B at 37° C. in a humidified 5% CO2 atmosphere. Jurkat's cells (American Type Culture Collection, Manassas, Va.), an acute leukemia T-cell line, were maintained in the same medium with the addition of 10 mM 4-(2-hydroxyethyl)-1-piperazineethanesulfonic acid (HEPES).
A series of experiments were conducted to quantify the uptake of the ^111In-labeled parent SHAL (DvLPBaPPP)2LLDo and its hexa-arginine analog (DvLPBaPPP)2LArg6AcLLDo by Raji cells, a cell line that has been previously shown to express the HLA-DR10 variant. The assays were conducted using aliquots containing 10^6 cells suspended in 150 μl of PBS with 5% bovine serum albumin (BSA). Aliquots of cells were treated with 0.1, 1, 5, 10 or 25 ng of ^111In-labeled (DvLPBaPPP)2LLDo or (DvLPBaPPP)2LArg6AcLLDo for one hour at both 4° C. and 22° C. The tubes containing the treated cells were centrifuged to separate the cell pellet from the supernatant and the two fractions were counted in a calibrated gamma well counter to determine the amount of bound and free SHAL. Half of the cell pellets were washed twice with PBS and incubated at 22° C. for 15 min before centrifuging them again. The pooled washes and washed cell pellets were subsequently counted in the gamma well counter to assess how much of the bound SHAL could be removed by washing.
In vitro cell binding experiments were conducted using ^111In-labeled parent SHAL and the hexa-arginine SHAL analog to quantify SHAL uptake and to evaluate the effect of adding the hexa-arginine tag. Uptake was assessed using Raji cells, a lymphoma cell line expressing HLA-DR10. Aliquots containing 10^6 cells were incubated with increasing amounts of SHAL containing ^111In labeled SHAL as a tracer, and cell-associated ^111In was measured before and after washing the cell pellets.

HLA-DR10 protein = test: Surface plasmon resonance binding of SHALs to isolated HLA-DR10 protein; parameters: species or system human; details: biotinylated versions of the SHALs immobilized on streptavidin chip; HLA-DR10 isolated from Raji cells
Text: In certain embodiments, the binding affinities of the best SHALs can be estimated by mass spectrometry of the SHAL-target complexes, followed by a more accurate surface plasmon resonance (SPR) spectroscopy (Shuck (1997) Annu Rev Biophys Biomol Struct., 26: 541-566; Van Regenmortal (2001) Cell Mol Life Sci., 58: 794-800) measurement of the SHAL-target binding affinity using for example, the IASYS Plus or BiaCore instruments. In order to perform the SPR measurement, biotin can be added to the linker through a third functional group (as described above) and the SHAL can be bound to commercially available streptavidin coated chips. […] Experiments can be performed to test the selectivity of SHAL binding to targets in the presence of molecules related to the targets. Thus, for example, where the SHAL is directed to HLA-DR10, the SHAL can be evaluated for its ability to bind target molecules in the presence of Raji cell surface proteins extracted and separated by affinity chromatography. After treating the gel with the biotinylated SHAL and rinsing out excess unbound SHAL, the location of the bound SHAL can be detected by staining with Rhodamine tagged streptavidin.
Protein binding experiments were conducted using surface plasma resonance on a Biacore 3000 (Biacore, Piscataway, N.J.) at 25° C. A research grade streptavidin immobilized chip (SA chip, Biacore) was preconditioned and normalized according to the manufacturers instructions. Biotin labeled SHALs were dissolved in DMSO and diluted in 1.05×PBS (Biacore) to a final concentration of 1×PBS pH 7.4, 5% DMSO, to match the running buffer. These SHALs were injected over the flow cell to yield a surface density of 500-1000RU (response units). Biotin (50 μM E-Z Link Amine-PEO2-Biotin, Pierce) was injected over all cells for 1 minute at 20 μl/min as a block to reduce non-specific binding. One flow cell was used as a reference cell and a different SHAL was immobilized on each of the three other cells.
Experiments measuring the binding of HLA-DR10 to the SHALs were carried out at a flow rate of 30 μl/minute in PBS pH7.4 running buffer using all 4 flow cells. HLA-DR10 isolated from Raji cells (Rose et al. (1996) Cancer Immunol Immunother 43:26-30) was diluted in running buffer to a final concentration ranging from […] and a series of concentrations were run randomly in triplicate. Protein was injected for 3 minutes, allowed to dissociate for 5 minutes followed by regeneration of the surface using a 1 minute injection of 0.1% sodium dodecylsulfate (SDS) followed by a washing step with a 2 minute injection of running buffer. The data, which were double referenced by subtracting the blank reference surface and an average of 5 blank injections, were processed using the program SCRUBBER (University of Utah).
Using homology modeling, HLA-DR amino acid residues critical for Lym-1 binding were mapped on a 3-D model of the HLA-DR10ß subunit (Balhorn et al, (2007) Clin. Cancer Res., 13(Suppl. 18): S5621-S5628). Cavities within the Lym-1 epitopic surface of the protein were identified using SPHGEN (Kuntz et al. (1982) J. Mol Biol. 161: 269-288; Desjarlais et al. (1988) J. Med. Chem., 31: 722-729). After computational ligand docking for each of the cavities, a combination of NMR spectroscopy, surface plasmon resonance (BIAcore 3000; Biacore, Piscataway, N.J.) and competitive binding experiments were used to confirm ligand binding to HLA-DR10 protein. […]

[2] = tested on: cultured cell lines containing HLA-DR10; details: shown previously (Balhorn et al. 2007); cited from earlier work

Row | binding to HLA-DR10 in subsequent screenings (HLA-DR10) | Compound | SHAL binding, uptake and localization in Raji cells (Raji cells) | pmoles SHAL Bound/10^6 cells unwashed ([1]; 5.3 pmoles of 111In-labeled SHAL, unwashed cell pellets) | pmoles SHAL Bound/10^6 cells Washed ([1]; 5.3 pmoles of 111In-labeled SHAL, washed two times with BSA/buffer) | proportion of SHAL retained by the cells after washing ([1]; Raji cells, after washing) | Percent SHAL Retained ([1]; after washing two times) | Kd (HLA-DR10 protein) | selective binding to HLA-DR10 expressing cell lines [2]
1 | precipitated onto the target protein | Nc1ccc(Oc2ccc(C(=O)c3ccc(C(=O)c4ccc(Oc5ccc(N)cc5)cc4)cc3)cc2)cc1 [1,4-phenylenebis[[4-(4-aminophenoxy)phenyl]methanone]] | – | – | – | – | – | – | –
2 | – | CC(C)C(NS(=O)(=O)c1ccc(N=Nc2ccc(N(C)C)cc2)cc1)C(=O)NC(CCCCNC(=O)COCCOCCNC(=O)c1ccc(NC(=O)C(CCCNC(=N)N)NC(=O)c2ccccc2)cc1)C(=O)NCCOCCOCC(=O)NCCOCCOCC(=O)NCCOCCOCC(=O)NCCCCC(NC(=O)COCCOCCNC(=O)COCCOCCNC(=O)COCCOCCNC(=O)C(CCCCNC(=O)COCCOCCNC(=O)c1ccc(NC(=O)C(CCCNC(=N)N)NC(=O)c2ccccc2)cc1)NC(=O)C(NS(=O)(=O)c1ccc(N=Nc2ccc(N(C)C)cc2)cc1)C(C)C)C(=O)NC(CCCCNC(=O)CN1CCN(CC(=O)O)CCN(CC(=O)O)CCN(CC(=O)O)CC1)C(=O)O (centres unmarked) [(DvLPBaPPP)2LLDo] | intracellular binding; also recorded: Nuclear staining was not observed; also recorded: taken up and internalized | 0.568 ± 0.091 pmoles SHAL Bound/10^6 cells | 0.263 ± 0.000 pmoles SHAL Bound/10^6 cells | ~46% | 46% | ~21 nM | bind selectively to HLA-DR10 expressing cell lines
